Where “and” joins values, the source holds several entries; their conditions need not be identical. Equal entries are not always repeated.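 In this assay, cells in 96-well plates receive the compound at five concentrations for 48 hours. Endpoints are linearly interpolated between the surrounding concentrations. The concentration for 50% growth inhibition is given as GI50. At the TGI there is no net growth.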 Where a SMILES comes first, the peptide text is derived from it. [ ]: non-standard residue; d: D form. The star is where a group is joined. ξ: configuration not given here. X6 = FC(F)(F)c1cc(NC(=S)*)cc(C(F)(F)F)c1; ξF = NC(Cc1ccccc1)C(=O)O
Key:
Experiment in all cases: NCI tumour cell line growth inhibition, 48 h
OVCAR-4 ovarian = system: OVCAR-4 ovarian
U251 CNS = system: U251 CNS
UACC-257 melanoma = system: UACC-257 melanoma
DU-145 prostate = system: DU-145 prostate
HT29 colon = system: HT29 colon
SK-OV-3 ovarian = system: SK-OV-3 ovarian
SF-539 CNS = system: SF-539 CNS
SK-MEL-28 melanoma = system: SK-MEL-28 melanoma
SK-MEL-2 melanoma = system: SK-MEL-2 melanoma
SW-620 colon = system: SW-620 colon

SMILES | GI50 (OVCAR-4 ovarian) | TGI (OVCAR-4 ovarian) | GI50 (U251 CNS) | TGI (U251 CNS) | GI50 (UACC-257 melanoma) | TGI (UACC-257 melanoma) | GI50 (DU-145 prostate) | TGI (DU-145 prostate) | GI50 (HT29 colon) | TGI (HT29 colon) | GI50 (SK-OV-3 ovarian) | TGI (SK-OV-3 ovarian) | GI50 (SF-539 CNS) | TGI (SF-539 CNS) | GI50 (SK-MEL-28 melanoma) | TGI (SK-MEL-28 melanoma) | GI50 (SK-MEL-2 melanoma) | TGI (SK-MEL-2 melanoma) | GI50 (SW-620 colon) | TGI (SW-620 colon)
COC1=CC(c2ccc[nH]2)=N/C1=C\c1[nH]c(C)c(C(=O)OC(C)C)c1C | 0.0531 µM | 4.62 µM | 0.0355 µM | 0.82 µM | 0.0898 µM | 1.87 µM | 0.0609 µM | 6.47 µM | 0.0236 µM | 0.439 µM | 0.831 µM | 4.65 µM | 0.069 µM | 1.53 µM | 0.216 µM | 1.95 µM | 0.02 µM | 0.0525 µM | 0.0336 µM | 1.44 µM
c1ccc2cc(-c3cc(-c4cc(-c5ccc6ccccc6c5)on4)no3)ccc2c1 |  | > 100 µM |  | > 100 µM |  | > 100 µM |  | > 100 µM |  | > 100 µM |  | > 100 µM |  | > 100 µM |  | > 100 µM |  | > 100 µM |  | > 100 µM
CCOC(=O)[C@]1(OC(C)=O)C[C@H](OC(C)=O)[C@@H](C(F)COP(=O)(OCc2ccccc2)OCc2ccccc2)O1 (some centres undefined) | 18 µM and > 100 µM | 39 µM and > 100 µM | 35.9 µM and > 100 µM | > 100 µM |  | > 100 µM |  | > 100 µM | 28.2 µM and > 100 µM | 83 µM and > 100 µM |  | > 100 µM |  | > 100 µM |  | > 100 µM | 25 µM and > 100 µM | 78.4 µM and > 100 µM | 20.2 µM and > 100 µM | 42.8 µM and > 100 µM
NNC(=O)Nc1cccnc1 |  | > 100 µM |  | > 100 µM |  | > 100 µM |  | > 100 µM |  | > 100 µM |  | > 100 µM |  | > 100 µM |  | > 100 µM |  | > 100 µM |  | > 100 µM
Clc1ccc2c(NCCCCNc3nc(N4CCCCC4)nc4ccccc34)ccnc2c1 | 1.59 µM | 5.24 µM | 2.02 µM | 4.56 µM | 2.05 µM | 3.68 µM | 3.8 µM | 15.2 µM | 1.63 µM | 4.86 µM | 3.81 µM | 14.4 µM | 1.49 µM | 2.97 µM | 1.89 µM | 3.82 µM | 1.98 µM | 4.02 µM | 1.59 µM | 4.78 µM
Cn1cnc([N+](=O)[O-])c1Sc1nnc(-c2cccnc2)n1C |  | 56.6 µM |  | > 100 µM |  | 23 µM |  | > 80.7 µM |  | 47.9 µM |  | > 100 µM |  | 55.2 µM |  | 35.6 µM |  | 46.1 µM |  | 31.3 µM
O=S(=O)(NC1=NCCN1C(=S)SN1CCn2c1nsc2=S)c1ccc(OC(F)(F)F)cc1 | 14.6 µM | 31.6 µM | 14.4 µM | 29.4 µM | 15.5 µM | 30 µM | 2.69 µM | 12.1 µM | 11.4 µM | > 100 µM | 19.5 µM | 34.6 µM | 1.31 µM | 12.1 µM | 22.7 µM | 64 µM | 6.58 µM | 21 µM | 9.62 µM | 24.3 µM
C=C(CN1CCN(c2ccc(Cl)cc2F)CC1)c1ccc(C(=O)Nc2ccccc2N)cc1 |  | > 66.6 µM | 1.8 µM | 21.5 µM | 1.59 µM | 48.6 µM | 3.14 µM | > 100 µM | 2.96 µM | > 100 µM |  | > 25.7 µM | 2.02 µM | > 52.8 µM | > 26.8 µM | > 100 µM | 6.95 µM | > 100 µM | 3.06 µM | > 100 µM
Cn1cc(C2=C(c3cn(C)c4ncccc34)C(=O)NC2=O)c2ccccc21 | 17.8 µM | > 25 µM | 7.27 µM | > 25 µM | 12.8 µM | > 25 µM | 13.1 µM | > 25 µM | 6.47 µM | > 24.1 µM | 6.97 µM | 21.7 µM | 5.35 µM | 14.3 µM | 8.56 µM | > 25 µM | 6.31 µM | 12.8 µM | 9.7 µM | > 25 µM
COc1ccc(-c2nc3sccn3c2/C(N)=N/C(=N)N)cc1OC | > 100 µM | > 100 µM | 34.1 µM | > 100 µM | 40.7 µM | > 100 µM | 52.4 µM | > 100 µM | 58.4 µM | > 100 µM | > 100 µM | > 100 µM | 25.7 µM | 66 µM | 32.5 µM | > 100 µM | 29.4 µM | > 100 µM | 28.4 µM | 72.1 µM
O=C1C(Cl)=C(Nc2cccc(Cl)c2)C(=O)N1Cc1ccc(Cl)cc1Cl | 0.508 µM | 7.41 µM |  | 13.7 µM | 5.94 µM | 24.8 µM | 5.87 µM | 18.2 µM | 0.971 µM | 14.7 µM | 3.57 µM | 20.6 µM | < 0.0466 µM | 2.92 µM | 1.67 µM | 14.2 µM | 1.6 µM |  | 0.115 µM | 18.9 µM
COc1ccc(C(=O)Cn2c(C(=O)c3ccccc3)nc(-c3ccc(OC)cc3)c2-c2ccc(OC)cc2)cc1 | > 100 µM | > 100 µM | 64.9 µM | > 100 µM | > 100 µM | > 100 µM | > 100 µM | > 100 µM | > 100 µM | > 100 µM | 97.8 µM | > 100 µM | 31.5 µM | > 100 µM | > 100 µM | > 100 µM | 66 µM | > 100 µM | > 100 µM | > 100 µM
COc1ccc2c(c1)/C(=C/c1c(C)nc3sc(C)nn13)C(=O)N2 | 14.7 µM | > 100 µM | 4.08 µM | > 100 µM | > 100 µM | > 100 µM | 6.11 µM | > 100 µM | 0.451 µM | > 100 µM | 3.62 µM | > 27.5 µM | 3.29 µM | > 50.7 µM | 5.29 µM | > 100 µM | 1.29 µM | 4.63 µM | 0.695 µM | > 100 µM
COC(=O)[C@@H](NC(=O)CNC(=O)[C@H]1CCCN1C(=O)C(Cc1ccccc1)NC(=S)Nc1cc(C(F)(F)F)cc(C(F)(F)F)c1)C(C)C (some centres undefined) (X6-[ξF][dP]GV-OMe) | 3.17 µM | 17.6 µM |  |  | 2.14 µM | 5.75 µM | 4.85 µM | 20.8 µM | 2.44 µM | 5.75 µM | 2.98 µM | 8.26 µM | 2.06 µM | 3.94 µM | 1.84 µM | 3.38 µM | 2.86 µM | 6.86 µM | 3.72 µM | 24.5 µM
